Source: ChEMBL document CHEMBL1777698, “Synthesis and biological evaluation of unique stereodimers of sinomenine analogues as potential inhibitors of NO production” (Bioorg Med Chem, 2011)
Activity calls are given as the source filed them. No cut-off for these calls is given here.

How the values were obtained:
RAW264.7 [1] = test: Cytotoxicity against mouse RAW264.7 cells after 24 hrs by MTT assay; type: cell-based
RAW264.7 [2] = test: Inhibition of LPS-induced iNOS mRNA expression in mouse RAW264.7 cells at 100 uM by RT-PCR analysis; type: functional, cell-based
RAW264.7 [3] = test: Inhibition of LPS-induced nitric oxide production in mouse RAW264.7 cells at 25 uM after 24 hrs by Griess reaction relative to control; type: functional; settings: for inhibition at 25 µM: Mus musculus, RAW264.7, 24 h
RAW264.7 [4] = test: Inhibition of LPS-induced nitric oxide production in mouse RAW264.7 cells at 100 uM after 24 hrs by Griess reaction relative to control; type: functional; settings: for inhibition at 100 µM: Mus musculus, RAW264.7, 24 h
RAW264.7 [5] = test: Inhibition of LPS-induced nitric oxide production in mouse RAW264.7 cells at 50 uM after 24 hrs by Griess reaction relative to control; type: functional; settings: for inhibition at 50 µM: Mus musculus, RAW264.7, 24 h
RAW264.7 [6] = test: Inhibition of LPS-induced nitric oxide production in mouse RAW264.7 cells at 12.5 uM after 24 hrs by Griess reaction relative to control; type: functional
RAW264.7 [7] = test: Inhibition of LPS-induced nitric oxide production in mouse RAW264.7 cells at 1.5625 uM after 24 hrs by Griess reaction relative to control; type: functional
RAW264.7 [8] = test: Inhibition of LPS-induced nitric oxide production in mouse RAW264.7 cells at 6.25 uM after 24 hrs by Griess reaction relative to control; type: functional
RAW264.7 [9] = test: Inhibition of LPS-induced nitric oxide production in mouse RAW264.7 cells at 3.125 uM after 24 hrs by Griess reaction relative to control; type: functional
RAW264.7 [10] = test: Inhibition of LPS-induced iNOS mRNA expression in mouse RAW264.7 cells by RT-PCR analysis; type: functional, cell-based
RAW264.7 [11] = test: Cytotoxicity against mouse RAW264.7 cells at 6.25 uM after 24 hrs by MTT assay; type: cell-based; settings: raw264.7, 24 h

SMILES | IC50 (RAW264.7 [1]; Mus musculus, RAW264.7, 24 h) [µM] | inhibition at 25 µM (RAW264.7 [3]) [%] | inhibition at 100 µM (RAW264.7 [4]) [%] | inhibition at 50 µM (RAW264.7 [5]) [%] | inhibition (INH) (RAW264.7 [3]) [%] | also measured
COC1=C[C@@H]2[C@@H]3Cc4ccc(OC)c(O)c4[C@]2(CCN3C)CC1=O [SINOMENINE] | > 100 | -3 | 12.8 | 0.1 | – | inhibition (RAW264.7 [2]): Active
COc1ccc2c(c1O)[C@@]13CCN(C)[C@@H](C2)[C@H]1Cc1nc2ccccc2nc1C3 | 57.9 | 11.4 | – | – | – | inhibition at 12.5 µM (RAW264.7 [6]; Mus musculus, RAW264.7, 24 h): 1.3%
COc1cc(-c2cc(OC)c(O)c3c2C[C@H]2[C@H]4C[C@@H](OC)[C@H](NS(C)(=O)=O)C[C@@]34CCN2C)c2c(c1O)[C@@]13CCN(C)[C@@H](C2)[C@H]1C[C@@H](OC)[C@H](NS(C)(=O)=O)C3 (stereo in doubt; 5a) | > 100 | – | 9.3 | – | -0.2 | inhibition (INH) (RAW264.7 [5]): 0.2%
COc1cc(-c2cc(OC)c(O)c3c2C[C@H]2[C@H]4CCCC[C@@]34CCN2C)c2c(c1O)[C@]13CCCC[C@@H]1[C@H](C2)N(C)CC3 (stereo in doubt; 2b) [listing 1 of 2 here] | – | – | – | – | – | IC50 (RAW264.7 [1]; raw264.7): 14.2 µM; inhibition (INH) (RAW264.7 [7]): -4.4%; inhibition at 6.25 µM (RAW264.7 [8]; Mus musculus, RAW264.7, 24 h): 35.2%; inhibition at 3.125 µM (RAW264.7 [9]; Mus musculus, RAW264.7, 24 h): 16.9%
N=C(N)NN [PIMAGEDINE] | – | 52.5 | 86 | 74.9 | – | –
COc1cc(-c2cc(OC)c(O)c3c2C[C@H]2[C@H]4Cc5nc6ccccc6nc5C[C@@]34CCN2C)c2c(c1O)[C@@]13CCN(C)[C@@H](C2)[C@H]1Cc1nc2ccccc2nc1C3 | 6.3 | – | – | – | – | inhibition at 1.5625 µM (RAW264.7 [7]; Mus musculus, RAW264.7, 24 h): 8.4%
COC1=C[C@@H]2[C@@H]3Cc4c(-c5cc(OC)c(O)c6c5C[C@H]5[C@H]7C=C(OC)C(=O)C[C@@]67CCN5C)cc(OC)c(O)c4[C@]2(CCN3C)CC1=O (stereo in doubt; 1b) | – | – | – | – | -1.3 | inhibition (INH) (RAW264.7 [4]): -2.1%; inhibition (INH) (RAW264.7 [5]): 6.6%
COc1ccc2c(c1O)[C@@]13CCN(C)[C@@H](C2)[C@H]1C[C@@H](OC)[C@H](NS(C)(=O)=O)C3 | > 100 | -2.3 | -3.5 | -3.7 | – | –
COc1cc(-c2cc(OC)c(O)c3c2C[C@H]2[C@H]4C[C@@H](OC)[C@H](NS(C)(=O)=O)C[C@@]34CCN2C)c2c(c1O)[C@@]13CCN(C)[C@@H](C2)[C@H]1C[C@@H](OC)[C@H](NS(C)(=O)=O)C3 (stereo in doubt; 5b) | – | – | – | – | -8.4 | inhibition (INH) (RAW264.7 [4]): 9.9%; inhibition (INH) (RAW264.7 [5]): 8.6%
COc1cc(-c2cc(OC)c(O)c3c2C[C@H]2[C@H]4CCCC[C@@]34CCN2C)c2c(c1O)[C@]13CCCC[C@@H]1[C@H](C2)N(C)CC3 (stereo in doubt; 2a) [listing 1 of 2 here] | – | – | – | – | – | inhibition (RAW264.7 [10]): Dose-dependent effect
COC1=C[C@@H]2[C@@H]3Cc4c(-c5cc(OC)c(O)c6c5C[C@H]5[C@H]7C=C(OC)C(=O)C[C@@]67CCN5C)cc(OC)c(O)c4[C@]2(CCN3C)CC1=O (stereo in doubt; 1a) [listing 1 of 2 here] | > 100 | – | – | – | -2.9 | inhibition (INH) (RAW264.7 [4]): 23.7%; inhibition (INH) (RAW264.7 [5]): 15%
COC1=C[C@@H]2[C@@H]3Cc4c(-c5cc(OC)c(O)c6c5C[C@H]5[C@H]7C=C(OC)C(=O)C[C@@]67CCN5C)cc(OC)c(O)c4[C@]2(CCN3C)CC1=O (stereo in doubt; 1a) [listing 2 of 2 here] | – | – | – | – | – | inhibition (RAW264.7 [10]): Dose-dependent effect
COc1cc(-c2cc(OC)c(O)c3c2C[C@H]2[C@H]4CCCC[C@@]34CCN2C)c2c(c1O)[C@]13CCCC[C@@H]1[C@H](C2)N(C)CC3 (stereo in doubt; 2b) [listing 2 of 2 here] | – | – | – | – | – | inhibition (RAW264.7 [10]): Dose-dependent effect
COc1ccc2c(c1O)[C@@]13CCN(C)[C@@H](C2)[C@H]1C[C@@H](OC)[C@H](NS(=O)(=O)c1ccc(C)cc1)C3 | > 100 | 10.9 | 39.8 | 30 | – | inhibition (RAW264.7 [10]): Dose-dependent effect
COc1cc(-c2cc(OC)c(O)c3c2C[C@H]2[C@H]4CCCC[C@@]34CCN2C)c2c(c1O)[C@]13CCCC[C@@H]1[C@H](C2)N(C)CC3 (stereo in doubt; 2a) [listing 2 of 2 here] | 9.5 | – | – | – | – | inhibition (INH) (RAW264.7 [7]): 2.7%; Activity (RAW264.7 [11]): Non-toxic; inhibition (INH) (RAW264.7 [8]): 41.6%; inhibition (INH) (RAW264.7 [9]): 17%
COc1cc(-c2cc(OC)c(O)c3c2C[C@H]2[C@H]4C[C@@H](OC)[C@H](NS(=O)(=O)c5ccc(C)cc5)C[C@@]34CCN2C)c2c(c1O)[C@@]13CCN(C)[C@@H](C2)[C@H]1C[C@@H](OC)[C@H](NS(=O)(=O)c1ccc(C)cc1)C3 (stereo in doubt; 4b) | – | – | – | -2.2 | -2.9 | IC50 (RAW264.7 [1]; raw264.7): 72.9 µM; inhibition (INH) (RAW264.7 [6]): -4%
COC1=C[C@@H]2[C@@H]3Cc4c(-c5cc(OC)c(O)c6c5C[C@@H]5NCC[C@]67CC(=O)C(OC)=C[C@H]57)cc(OC)c(O)c4[C@]2(CCN3)CC1=O (stereo in doubt; 3b) | – | – | – | – | -11.6 | inhibition (INH) (RAW264.7 [4]): -7.1%; inhibition (INH) (RAW264.7 [5]): -11%
COc1ccc2c(c1O)[C@]13CCCC[C@@H]1[C@H](C2)N(C)CC3 | > 100 | 12.1 | 30.6 | 28.1 | – | inhibition (RAW264.7 [10]): Dose-dependent effect
COc1cc(-c2cc(OC)c(O)c3c2C[C@H]2[C@H]4C[C@@H](OC)[C@H](NS(=O)(=O)c5ccc(C)cc5)C[C@@]34CCN2C)c2c(c1O)[C@@]13CCN(C)[C@@H](C2)[C@H]1C[C@@H](OC)[C@H](NS(=O)(=O)c1ccc(C)cc1)C3 (stereo in doubt; 4a) | 43.5 | – | – | – | 4.9 | inhibition (INH) (RAW264.7 [6]): 2.6%
COC1=C[C@@H]2[C@@H]3Cc4c(-c5cc(OC)c(O)c6c5C[C@@H]5NCC[C@]67CC(=O)C(OC)=C[C@H]57)cc(OC)c(O)c4[C@]2(CCN3)CC1=O (stereo in doubt; 3a) | > 100 | – | – | – | -9.3 | inhibition (INH) (RAW264.7 [4]): 16%; inhibition (INH) (RAW264.7 [5]): -12.6%
COC1=C[C@@H]2[C@@H]3Cc4ccc(OC)c(O)c4[C@]2(CCN3)CC1=O | > 100 | -6.1 | 10.7 | -0.8 | – | –
